From the Deep4Chem optical property database

Test: solvent given as SMILES

CCCCCCn1c(=O)c2c3oc4ccccc4sc3c3c(=O)n(CCCCCC)c(=O)c3c2c1=O
absorption maximum (in ClCCl): 437 nm

CC(C)(C)NC(=O)c1ccc(-c2ccccc2)c2ccc3c4ccccc4c4ccccc4c3c12
absorption maximum (in ClCCl): 336 nm

CC[N+]1(CC)CN2C(=N1)C(C(=O)O)=Cc1cc(Oc3ccccc3)ccc12
absorption maximum (in O): 387 nm

CC[N+]1(CC)CN2C(C)=CC(C)=C(C(=O)O)C2=N1
absorption maximum (in CN(C)C=O): 346 nm
absorption maximum (in O): 343 nm

CCn1c2ccsc2c2c3nsnc3c3c4sccc4n(CC)c3c21
absorption maximum (in C1CCOC1): 436 nm
absorption maximum (in CCOC(C)=O): 433 nm
absorption maximum (in CN(C)C=O): 441 nm
absorption maximum (in Cc1ccccc1): 432 nm
absorption maximum (in ClCCl): 436 nm

CC1(C)c2ccccc2N(c2ccc(-c3cnc(C#N)nc3)cc2)c2ccccc21
absorption maximum (in Cc1ccccc1): 384 nm

CC(C)c1cccc(C(C)C)c1N1C(=O)c2cccc3c(Oc4ccccc4)ccc(c23)C1=O
absorption maximum (in ClCCl): 364 nm

COc1cc2c(cc1-c1ccc(N(c3ccccc3)c3ccccc3)cc1)Cc1c3c(c4c(c1-2)-c1cc(OC)c(-c2ccc(N(c5ccccc5)c5ccccc5)cc2)cc1C4)C(=O)N(CCC(C)C)C3=O
absorption maximum (in C1CCOC1): 428 nm

CC1(C)c2ccccc2N(c2ccc3c(c2)c2cc(N4c5ccccc5C(C)(C)c5ccccc54)ccc2c2nc4ccccc4nc32)c2ccccc21
absorption maximum (in Cc1ccccc1): 380 nm

Cc1nc2cccc(-c3nc4ccccc4s3)c2c(=O)[nH]1
absorption maximum (in CN(C)C=O): 319 nm

O=c1c2cccc3cccc(c32)c2nc3c4ccccc4c4ccccc4c3n12
absorption maximum (in ClCCl): 436 nm

COc1nc(Nc2ccc3ccc4cccc5ccc2c3c45)nc(OC)n1
absorption maximum (in CC#N): 340 nm
absorption maximum (in CCCCOCCCC): 341 nm
absorption maximum (in CO): 340 nm

CCCCCCn1c2c(c3ccccc31)-c1c(c3ccccc3n1CCCCCC)-c1c(c3ccccc3n1CCCCCC)-c1c-2c2ccccc2n1CCCCCC
absorption maximum (in ClCCl): 312 nm

Cc1ccc(C2=C3C=CC=[N+]3[B-](F)(F)n3cccc32)cc1
absorption maximum (in C1CCCCC1): 500.5 nm
absorption maximum (in CC#N): 496.5 nm
absorption maximum (in CCO): 497.5 nm
absorption maximum (in CCOC(C)=O): 497 nm
absorption maximum (in CO): 496 nm
absorption maximum (in OCC(F)(F)F): 493 nm

Cc1ccc(-c2cc3ccccc3oc2=O)cc1
absorption maximum (in C1CCOC1): 328 nm
absorption maximum (in CCCCCC): 328 nm
absorption maximum (in CCO): 328 nm
absorption maximum (in CS(C)=O): 330 nm

c1ccc([B-]23Oc4ccccc4-c4c5[n+]6c(c([n+]42)-c2ccccc2O3)-c2ccccc2O[B-]6(c2ccccc2)Oc2ccccc2-5)cc1
absorption maximum (in ClCCl): 574 nm

CC(C)(C)c1ccc2c(c1)c1cc(C(C)(C)C)ccc1n2-c1ccc(S(=O)(=O)c2cccc(S(=O)(=O)c3ccc(-n4c5ccc(C(C)(C)C)cc5c5cc(C(C)(C)C)ccc54)cc3)c2)cc1
absorption maximum (in Cc1ccccc1): 348 nm

CC1(C)CC(=O)C2=C(C1)Oc1ccc3cc(O)ccc3c1C2c1ccccn1 (stereo unspecified)
absorption maximum (in C1CCOC1): 349 nm
absorption maximum (in C1COCCO1): 347 nm
absorption maximum (in CC#N): 349 nm
absorption maximum (in CCCCCCC): 347 nm
absorption maximum (in CCO): 349 nm
absorption maximum (in CO): 349 nm
absorption maximum (in O): 347 nm

CCCCCCCCCCCCC(CCCCCCCCCC)Cn1c2cc(/C=C/C=C(C#N)C#N)c3cccc4c5cccc6c(/C=C/C=C(C#N)C#N)cc1c(c65)c2c34 (stereo unspecified)
absorption maximum (in C1CCCCC1): 638 nm
absorption maximum (in CC#N): 599 nm
absorption maximum (in Cc1ccccc1): 597 nm
absorption maximum (in ClCCl): 611 nm

C(C#Cc1ccc2ccc3cccc4ccc1c2c34)#Cc1cccc2ccccc12
absorption maximum (in C1CCCCC1): 409 nm
absorption maximum (in CC#N): 407 nm
absorption maximum (in CO): 406 nm
absorption maximum (in ClCCl): 412 nm

Cc1cc(C)c(C2=C3C=C(c4ccccc4)C(c4ccccc4)=[N+]3[B-](F)(F)n3c2cc(-c2ccccc2)c3-c2ccccc2)c(C)c1
absorption maximum (in C1CCCCC1): 590 nm
absorption maximum (in C1CCOC1): 587 nm
absorption maximum (in CC#N): 578 nm
absorption maximum (in Cc1ccccc1): 592 nm
absorption maximum (in ClCCl): 585 nm

C[Si](C)(C)C#Cc1ccc2c3cccc4cccc(c5cccc1c52)c43
absorption maximum (in C1CCCCC1): 459 nm

COc1ccc(N(c2ccc(OC)cc2)c2ccc(-c3ccc(C=C(C#N)C#N)o3)cc2)cc1
absorption maximum (in ClC(Cl)Cl): 524 nm

COc1ccc(C2=C/C(=C\c3ccc(C#N)cc3)C(=O)N2)cc1OC
absorption maximum (in C1COCCO1): 457 nm

Cc1ccc(-c2cnc3nn4ccccc4c3c2)cc1
absorption maximum (in C1CCOC1): 386 nm

CCCCN1/C(=C/C=C/C2=[N+](C)c3ccccc3C2(C)C)Oc2ccccc21
absorption maximum (in CS(C)=O): 516 nm

COc1cc(/C=C/c2nc3ccccc3s2)c(OC)cc1/C=C/c1ccncc1
absorption maximum (in C1CCOC1): 415 nm
absorption maximum (in CC#N): 410 nm
absorption maximum (in CN(C)C=O): 416 nm
absorption maximum (in Cc1ccccc1): 416 nm

Cc1cc2c3ccccc3n(C)c2c2c1c1ccccc1n2C
absorption maximum (in ClCCl): 329 nm

F[B-]1(F)n2c(cc3oc4ccccc4c32)C(c2ccc(I)cc2)=C2C=c3oc4ccccc4c3=[N+]21
absorption maximum (in ClC(Cl)Cl): 637 nm

c1ccc(Nc2nc(Nc3ccccc3)nc(Nc3ccc4cc5ccccc5cc4c3)n2)cc1
absorption maximum (in C1COCCO1): 402 nm
absorption maximum (in CC#N): 401 nm
absorption maximum (in CCCCOCCCC): 402 nm
absorption maximum (in CCOC(C)=O): 402 nm

Cc1cc(O)c(C(C)C)cc1/N=C/c1ccc([N+](=O)[O-])cc1
absorption maximum (in C1CCCCC1): 385 nm
absorption maximum (in C1CCOC1): 402 nm
absorption maximum (in C1COCCO1): 393 nm
absorption maximum (in CC#N): 392 nm
absorption maximum (in CC(C)(C)O): 407 nm
absorption maximum (in CC(C)O): 404 nm
absorption maximum (in CCCCCC): 383 nm
absorption maximum (in CCCCO): 405 nm
absorption maximum (in CCO): 402 nm
absorption maximum (in CCOC(C)=O): 397 nm
absorption maximum (in CN(C)C=O): 407 nm
absorption maximum (in CO): 399 nm
absorption maximum (in CS(C)=O): 410 nm
absorption maximum (in ClC(Cl)Cl): 398 nm
absorption maximum (in ClCCl): 392 nm
absorption maximum (in O): 395 nm
absorption maximum (in OCCO): 401 nm

CCOC(=O)c1ccc(C2CC(c3cccc4ccccc34)=NN2c2ccc(OC)cc2)cc1 (stereo unspecified)
absorption maximum (in ClCCl): 383 nm

O=c1oc2c(ccc3ccccc32)nc1-c1ccccc1
absorption maximum (in CC#N): 396 nm
absorption maximum (in CCCCCC): 398 nm
absorption maximum (in CO): 396 nm
absorption maximum (in c1ccccc1): 396 nm

CC1(C)c2ccccc2N(c2ccccc2)c2ccc(C(=O)c3ccc4c(c3)C(C)(C)c3ccccc3N4c3ccccc3)cc21
absorption maximum (in Cc1ccccc1): 371.57 nm

COc1ccc(-c2nc(C(C)=O)c(C)o2)cc1
absorption maximum (in CC#N): 278 nm
absorption maximum (in CCCCCC): 278 nm
absorption maximum (in CCO): 277 nm
absorption maximum (in CCOC(C)=O): 279 nm
absorption maximum (in CCOCC): 276 nm
absorption maximum (in ClCCl): 277 nm

O=C1c2ccc(N(c3ccccc3)c3ccccc3)cc2C(=O)c2ccc(N(c3ccccc3)c3ccccc3)cc21
absorption maximum (in Cc1ccccc1): 449 nm

CN(C)c1ccc(C(=O)c2ccccc2)cc1
absorption maximum (in C1CCCCC1): 325 nm
absorption maximum (in CC#N): 345 nm
absorption maximum (in CO): 355 nm
absorption maximum (in CS(C)=O): 350 nm
absorption maximum (in c1ccccc1): 340 nm

CCCN1C(=O)C(=CC=CC=C2Oc3ccccc3N2CCCS(=O)(=O)[O-])C(=O)N(CCC)C1=S
absorption maximum (in C1COCCO1): 565 nm
absorption maximum (in CC(C)=O): 559 nm
absorption maximum (in CCCCO): 562 nm
absorption maximum (in CCCO): 561 nm
absorption maximum (in CCO): 558 nm
absorption maximum (in CO): 554 nm
absorption maximum (in ClC(Cl)Cl): 568 nm
absorption maximum (in O): 530 nm

CC[N+]1(CC)CN2C(=N1)C(C(=O)O)=Cc1cc(C)ccc12
absorption maximum (in O): 379 nm
